Data set [1] can be described thus: In vivo brain exposure study in mouse. The note with it: po, mouse CD-1 male, 10 mg/kg p.o. As for the experimental part:
In a mouse (CD-1, male) brain exposure cassette study, Examples 2 and 6 were dosed together at 10 mg/kg each (0.5% Na CMC+0.5% Tween80, solution) via oral gauge (p.o.). At 3 time points (N=3), 2h, 4h and 8h, plasma and brain samples were analyzed for average drug concentrations.
In a mouse (CD-1, male) brain exposure study, Examples 11 was dosed at 10 mg/kg each (0.5% Na CMC+0.5% Tween80, solution) via oral gauge (p.o.). At 3 time points (N=3), 1 h, 2h and 4h, plasma and brain samples were analyzed for average drug concentrations.

For data set [2], the system named is U-87 MG cells. As to the kind of experiment: Cell proliferation assay in U-87 MG cells. The format is cell-based. The note with it: Homo sapiens, 240 h, day 10, read-out: Prolif_U87 IC50. As for the experimental part:
One day before experiment, Granta-519 cells were passaged to a density of 0.5×10^6 cells/ml. U-87 MG cells were trypsinized and 2,000 cells were seeded into 96-well plates and allow to grow overnight. On the day of experiment (day 0), Granta-519 Cells were spun down at 1,500 rpm for 4 min, resuspended in fresh medium to 0.5×10^6 cells/ml and 190 ul of cells were added to 96 well plates. For U-87 MG cells, old medium was removed and replaced with 190 uL fresh medium. Compound working stocks were first diluted at 1:50 with fresh medium in 96 well plate and 10 μL of diluted drugs were added to 96 well plates containing cells and incubated for 3 days. DMSO was used a vehicle control.
One day 3, 50 uL of Granta-519 cells were transferred to a new 96-well plate and 140 uL fresh medium was added. For U-87 MG cells, old medium was removed and replaced with 190 uL fresh medium. Compound working stocks were freshly diluted at 1:50 with medium and 10 μL of diluted drugs were added to cells and grow for 3 additional days. The same process was repeated on day 6. Cells were allowed to grow for additional 4 days.
On day 10, 100 uL Granta-519 cells were transferred to a new 96 well plate and 10 μL of Cell Counting Kit-8 (CCK-8, Jojindo, CK04-13) solution was added. For U-87 MG cells, old medium was removed and replaced with 100 uL fresh medium and 10 uL CCK-8 solution was added. Plates were incubated in CO2 incubator for 2 hours (Granta-519 cells) or 30 min (U-87 MG cells) and OD450 values were measured with a microplate reader (iMark microplate reader, Bio-Rad). Percentage of viable cells, relative to DMSO vehicle control, were calculated and plotted in Graphpad Prism ([Inhibitor]vs. normalized response−Variable slope) to determine proliferation IC50 values on day 10.
These cell proliferation procedures produced the data in Table 7.

In data set [3] the test system is Symmetric Di-Methyl Arginine (sDMA) marks in U-87 MG cells. In words: sDMA Western blot / In Cell Western in U-87 MG cells. The class given is cell-based. The following applies: Homo sapiens, 72 h, 3 days, read-out: sDMA_U87 IC50. As for the experimental part:
Compound titration and cell culture: Compounds were dissolved in DMSO to make 10 mM stock and 3-fold series dilutions were further conducted to make working stocks top at 1 mM. Granta-519 cells were maintained in PRMI 1640 (Corning Cellgro, Catalog #: 10-040-CV) supplemented with 10% v/v FBS (GE Healthcare, Catalog #: SH30910.03) and U-87 MG cells were maintained in DMEM (Corning Cellgro, Catalog #: 10-013-CV) with 10% FBS and 2 mM Glutamin (Corning Cellgro, Catalog #25005CV).
To determine enzyme inhibition IC50 values in Granta-519 and U-87 MG cells using Western Blot analysis. One day before experiment, Granta-519 cells were passaged to a density of 0.5×10^6 cells/ml. U-87 MG cells were trypsinized and 4×10^5 cells were seeded into 6-well plates and allow to grow overnight. The next day, Granta-519 cells were spun down at 1,500 rpm for 4 min, resuspend in fresh medium at 0.5×10^6 cells/ml and 3 mL of culture (1.5×10^6 cells) were seeded into 6 well plate. Eight-point, 3-fold serial dilutions of compound working stocks were added to cells (3 ul, 1:1,000 dilution, DMSO concentration was 0.1%; final top concentration at 1 uM) and incubated for 3 days. Cells incubated with DMSO was used as a vehicle control.
Cells were harvested 3 days later, resuspended in 15 uL PBS, lysed in 4% SDS, and homogenized by passing through homogenizer column (Omega Biotek, Catalog #: HCR003). Total protein concentrations were determined by BCA assay (ThermoFisher Scientific, Catalog #: 23225). Lysates were mixed with 5× Laemmli buffer and boiled for 5 min. Forty ug of total protein was separated on SDS-PAGE gels (Bio-Rad, catalog #: 4568083, 4568043), transferred to PVDF membrane, blocked with 5% dry milk (Bio-Rad, Catalog #: 1706404) in TBS with 0.1% v/v Tween 20 (TBST) for 1 hour at room temperature (RT), and incubated with primary antibodies (sDMA: Cell signaling, Catalog #: 13222, 1:3,000; β-Actin: sigma, Catalog #: 1:5,000) in 5% dry milk in TBST at 4° C. overnight. The next day, membranes were washed with TBST, 5×5 min, and incubated with HRP conjugated seconded antibody (GE Healthcare; Catalog #: NA934-1ML, NA931-1ML; 1:5,000) for 2 hours at RT, followed by 5×5 min washes with TBST, and incubation with ECL substrates (Bio-Rad, Catalog #: 1705061, 1705062). Chemiluminescent signal was captured with Fluochem HD2 imager (Proteinsimple). SmD3me2s bands were quantified by ImageJ. Signals were normalized to β-Actin and DMSO control. IC50 values were calculated using Graphpad Prism ([Inhibitor]vs. normalized response−Variable slope).
U87-MG cells were trypsinized one day before the experiment, seeded into a 384-well plate at 2500 cells/well using a Multidrop Combi Dispenser (ThermoFisher) and allowed to grow overnight. The next day (day 0), a series of 9-point, 3-fold serial dilutions of compounds were prepared and dispensed into wells from a 1 mM stock solution using a TECAN digital dispenser (D300e) and the DMSO % concentration was normalized to 0.1%. Three days later, media was removed, and cells were processed as described above.
To determine IC50 values, the ratio for each well was calculated (sDMA 800 nm value/DRAQ5 700 nm value). Each plate included 28 negative control wells (DMSO only, minimum inhibition) and 18 positive control wells for maximum inhibition (treated with 3 uM of a reference compounds, background wells). The average ratios of minimum and maximum inhibition controls were calculated and used to determine the percentage of sDMA, relative to DMSO, for each well in the plate.
These procedures generated the sDMA data in Table 7.

[4] abbreviates: cassette, brain, read-out: Brain-2 h.
Where [5] appears, read: cassette, brain, read-out: Brain-4 h.
The mark [6] stands for this setting: cassette, brain, read-out: Brain-8 h.
[7] abbreviates: cassette, plasma, read-out: Plasma-2 h.
[8] abbreviates: cassette, plasma, read-out: Plasma-4 h.
The mark [9] stands for this setting: cassette, plasma, read-out: Plasma-8 h.

Read-outs that look alike come from different tables or passages of the source.

Experimental findings from patent publication US11524962B2, “Substituted pyrrolo[2,3-d]pyrimidines as inhibitors of protein arginine methyl transferase 5 (PRMT5)” (PRELUDE THERAPEUTICS, INCORPORATED, priority 2017, dated 2022) are described below.

As to `Nc1ncnc2c1ccn2[C@@H]1O[C@H]([C@H](O)c2ccc3c(c2)CC3)[C@@H](O)[C@H]1O` [Example 2, (2R,3R,4S,5R)-2-(4-amino-7H-pyrrolo[2,3-d]pyrimidin-7-yl)-5-((R)-bicyclo[4.2.0]octa-1(6),2,4-trien-3-yl(hydroxy)methyl)tetrahydrofuran-3,4-diol], the values for the concentration at 2 h in data set [1] (setting [4]) and in data set [1] (setting [7]) were 244 ng/g and 1610 ng/mL, respectively. Also, the concentration at 4 h in data set [1] (setting [5]) was found to be 174 ng/g; in data set [1] (setting [8]), 802 ng/mL. For the same compound, the concentration at 8 h in data set [1] (setting [6]) stood at 76.2 ng/g; in data set [1] (setting [9]) it was 178 ng/mL.

For `Nc1ncnc2c1c(F)cn2[C@@H]1O[C@H]([C@H](O)c2ccc3c(c2)CC3)[C@@H](O)[C@H]1O` [Example 6, (2R,3R,4S,5R)-2-(4-amino-5-fluoro-7H-pyrrolo[2,3-d]pyrimidin-7-yl)-5-((R)-bicyclo[4.2.0]octa-1(6),2,4-trien-3-yl(hydroxy)methyl)tetrahydrofuran-3,4-diol], the concentration at 2 h stood at 183 ng/g in data set [1] (setting [4]) and 380 ng/mL in data set [1] (setting [7]). Moreover, the results for the concentration at 4 h in data set [1] (setting [5]) and in data set [1] (setting [8]) were 45.9 ng/g and 138 ng/mL, respectively. The concentration at 8 h in data set [1] (setting [6]) worked out at 50.5 ng/g; in data set [1] (setting [9]), 33.7 ng/mL. Moreover, the IC50 turned out to be 115 nM in data set [2] and 94 nM in data set [3].

For `Cc1ncnc2c1ccn2[C@@H]1O[C@H]([C@H](O)c2ccc3c(c2)CC3)[C@@H](O)[C@H]1O` [Example 11, (2R,3S,4R,5R)-2-((R)-bicyclo[4.2.0]octa-1(6),2,4-trien-3-yl(hydroxy)methyl)-5-(4-methyl-7H-pyrrolo[2,3-d]pyrimidin-7-yl)tetrahydrofuran-3,4-diol], the concentration at 1 h in data set [1] (brain, read-out: Brain-1 h) is 188 ng/g; in data set [1] (plasma, read-out: Plasma-1 h) it was 207 ng/mL. Further, the concentration at 2 h in data set [1] (brain, read-out: Brain-2 h) stood at 85.7 ng/g; in data set [1] (plasma, read-out: Plasma-2 h) it was 148 ng/mL. For the same compound, the concentration at 4 h in data set [1] (brain, read-out: Brain-4 h) stood at 50.2 ng/g; in data set [1] (plasma, read-out: Plasma-4 h), 53.6 ng/mL. Further, the IC50 in data set [2] came to 206 nM; in data set [3] it was 53 nM.
